Legend:
[1] = molecular target: Prostaglandin G/H synthase 1 (Homo sapiens, UniProt P23219); test: Inhibition of COX1 by microplate reader
[2] = molecular target: T1, Prostaglandin G/H synthase 2 (Homo sapiens, UniProt P35354); test: Inhibition of COX2 by microplate reader
T1 sequence (P35354 whole entry): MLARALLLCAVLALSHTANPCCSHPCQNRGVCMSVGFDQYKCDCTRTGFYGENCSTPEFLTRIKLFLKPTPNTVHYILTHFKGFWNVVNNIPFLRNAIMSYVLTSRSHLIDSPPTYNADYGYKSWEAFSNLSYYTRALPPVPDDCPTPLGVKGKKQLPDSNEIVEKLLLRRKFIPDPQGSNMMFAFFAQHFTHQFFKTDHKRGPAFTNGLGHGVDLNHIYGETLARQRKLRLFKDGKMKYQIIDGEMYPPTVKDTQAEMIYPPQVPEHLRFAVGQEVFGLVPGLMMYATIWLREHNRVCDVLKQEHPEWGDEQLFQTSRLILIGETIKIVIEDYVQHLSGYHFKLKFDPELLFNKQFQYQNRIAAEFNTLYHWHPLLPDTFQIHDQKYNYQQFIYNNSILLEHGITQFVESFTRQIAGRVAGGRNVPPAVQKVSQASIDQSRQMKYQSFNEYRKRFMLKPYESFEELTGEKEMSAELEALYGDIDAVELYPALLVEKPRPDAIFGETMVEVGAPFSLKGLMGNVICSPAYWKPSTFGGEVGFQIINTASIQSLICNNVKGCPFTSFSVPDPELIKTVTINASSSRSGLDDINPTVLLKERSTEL

Chain of Prostaglandin G/H synthase 1 (P23219 whole entry): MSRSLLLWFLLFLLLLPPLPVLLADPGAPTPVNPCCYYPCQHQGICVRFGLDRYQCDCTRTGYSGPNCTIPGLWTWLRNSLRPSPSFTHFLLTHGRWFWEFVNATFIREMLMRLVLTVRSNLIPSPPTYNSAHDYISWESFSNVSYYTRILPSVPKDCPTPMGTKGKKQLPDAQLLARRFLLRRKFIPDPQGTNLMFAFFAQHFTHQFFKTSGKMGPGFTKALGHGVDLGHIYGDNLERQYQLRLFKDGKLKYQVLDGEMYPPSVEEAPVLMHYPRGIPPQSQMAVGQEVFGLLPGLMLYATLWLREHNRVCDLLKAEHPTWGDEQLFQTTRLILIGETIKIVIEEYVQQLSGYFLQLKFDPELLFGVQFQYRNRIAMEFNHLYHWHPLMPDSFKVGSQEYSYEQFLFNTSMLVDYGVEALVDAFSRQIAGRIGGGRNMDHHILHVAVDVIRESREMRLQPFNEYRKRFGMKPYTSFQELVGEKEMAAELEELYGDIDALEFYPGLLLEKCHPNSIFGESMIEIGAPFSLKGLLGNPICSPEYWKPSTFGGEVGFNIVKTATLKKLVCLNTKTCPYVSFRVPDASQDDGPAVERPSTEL

In the case of COc1ccc(/C=C/C(=O)OC[C@H]2O[C@@H](O[C@H]3[C@H](O)[C@@H](O)[C@H](O[C@@H]4CO[C@@H](O[C@@H]5[C@@H](O)[C@H](C)O[C@@H](O[C@H]6[C@H](O[C@H]7CC[C@@]8(C)[C@@H](CC[C@]9(C)[C@@H]8CC=C8[C@@H]%10CC(C)(C)CC[C@]%10(C(=O)O[C@@H]%10O[C@H](CO[C@@H]%11O[C@H](CO)[C@@H](O[C@@H]%12O[C@@H](C)[C@H](O)[C@@H](O)[C@H]%12O)[C@H](O)[C@H]%11O)[C@@H](O)[C@H](O)[C@H]%10O)CC[C@]89C)[C@]7(C)CO)OC[C@@H](O)[C@@H]6O)[C@@H]5O)[C@H](O)[C@@H]4O)O[C@@H]3CO)[C@H](O)[C@@H](O)[C@@H]2O)cc1O [CLEMATOCHINENOSIDE E], the IC50 [1] is reported as 8.9 µM and the IC50 [2] is reported as 7.9 µM.

C[C@@H]1O[C@@H](O[C@H]2[C@H](O[C@H]3CC[C@]4(C)[C@H]5CC=C6[C@@H]7CC(C)(C)CC[C@]7(C(=O)O[C@@H]7O[C@H](CO[C@@H]8O[C@H](CO)[C@@H](O[C@@H]9O[C@@H](C)[C@H](O)[C@@H](O)[C@H]9O)[C@H](O)[C@H]8O)[C@@H](O)[C@H](O)[C@H]7O)CC[C@@]6(C)[C@]5(C)CC[C@H]4C3(C)CO)OC[C@H](O)[C@@H]2O)[C@H](O)[C@H](O)[C@H]1O (some centres undefined) [KIZUTA SAPONIN K12] was tested, and the IC50 [1] was over 50 µM and the IC50 [2] was over 50 µM.

COc1ccc(/C=C/C(=O)O[C@H]2[C@H](O[C@H]3[C@H](O)[C@@H](O)[C@H](O[C@@H]4CO[C@@H](O[C@@H]5[C@@H](O)[C@H](C)O[C@@H](O[C@H]6[C@H](O[C@H]7CC[C@]8(C)[C@H]9CC=C%10[C@@H]%11CC(C)(C)CC[C@]%11(C(=O)O[C@@H]%11O[C@H](CO[C@@H]%12O[C@H](CO)[C@@H](O[C@@H]%13O[C@@H](C)[C@H](O)[C@@H](O)[C@H]%13O)[C@H](O)[C@H]%12O)[C@@H](O)[C@H](O)[C@H]%11O)CC[C@@]%10(C)[C@]9(C)CC[C@H]8C7(C)C)OC[C@H](O)[C@@H]6O)[C@@H]5O)[C@H](O)[C@@H]4O)O[C@@H]3CO)O[C@H](CO)[C@@H](O)[C@@H]2O[C@@H]2O[C@H](CO[C@@H]3O[C@@H](C)[C@H](O)[C@@H](O)[C@H]3O)[C@@H](O)[C@H](O)[C@H]2O)cc1O [CLEMATERNOSIDE E] was tested, and the IC50 [1] was 8.3 µM and the IC50 [2] was 8.5 µM.

With COc1ccc(/C=C/C(=O)O[C@H]2[C@H](O[C@H]3[C@H](O)[C@@H](O)[C@H](O[C@@H]4CO[C@@H](O[C@@H]5[C@@H](O)[C@H](C)O[C@@H](O[C@H]6[C@H](O[C@H]7CC[C@]8(C)[C@H]9CC=C%10[C@@H]%11CC(C)(C)CC[C@]%11(C(=O)O[C@@H]%11O[C@H](CO[C@@H]%12O[C@H](CO)[C@@H](O[C@@H]%13O[C@@H](C)[C@H](O)[C@@H](O)[C@H]%13O)[C@H](O)[C@H]%12O)[C@@H](O)[C@H](O)[C@H]%11O)CC[C@@]%10(C)[C@]9(C)CC[C@H]8C7(C)C)OC[C@H](O)[C@@H]6O)[C@@H]5O)[C@H](O)[C@@H]4O)O[C@@H]3CO)O[C@H](CO)[C@@H](O)[C@@H]2O[C@@H]2O[C@H](CO[C@@H]3O[C@@H](C)[C@H](O)[C@@H](O)[C@H]3O[C@@H]3O[C@H](CO)[C@@H](O)[C@H](O)[C@H]3O)[C@@H](O)[C@H](O)[C@H]2O)cc1O [CLEMATERNOSIDE K] the IC50 [1] was 5.9 µM and the IC50 [2] was 6.7 µM.

C[C@@H]1O[C@@H](O[C@H]2[C@H](O)[C@@H](O)[C@H](OC[C@H]3O[C@@H](OC(=O)[C@]45CCC(C)(C)C[C@H]4C4=CC[C@@H]6[C@@]7(C)CC[C@H](O[C@@H]8OC[C@H](O)[C@H](O)[C@H]8O[C@@H]8O[C@@H](C)[C@H](O)[C@@H](O[C@@H]9OC[C@@H](O[C@@H]%10O[C@H](CO)[C@@H](O[C@@H]%11O[C@H](CO)[C@@H](O)[C@H](O)[C@H]%11O)[C@H](O)[C@H]%10O)[C@@H](O)[C@H]9O)[C@H]8O)[C@@](C)(CO)[C@@H]7CC[C@@]6(C)[C@]4(C)CC5)[C@H](O)[C@@H](O)[C@@H]3O)O[C@@H]2CO)[C@H](O)[C@H](O)[C@H]1O gave an IC50 [1] of over 50 µM and an IC50 [2] of over 50 µM.

Molecule C[C@@H]1O[C@@H](O[C@H]2[C@H](O)[C@@H](O)[C@H](OC[C@H]3O[C@@H](OC(=O)[C@]45CCC(C)(C)C[C@H]4C4=CC[C@@H]6[C@@]7(C)CC[C@H](O[C@@H]8OC[C@H](O)[C@H](O)[C@H]8O)C(C)(C)[C@@H]7CC[C@@]6(C)[C@]4(C)CC5)[C@H](O)[C@@H](O)[C@@H]3O)O[C@@H]2CO)[C@H](O)[C@H](O)[C@H]1O [CIWUJIANOSIDE C3] has an IC50 [1] of over 50 µM and an IC50 [2] of over 50 µM.

C[C@@H]1O[C@@H](O[C@H]2[C@H](O[C@H]3CC[C@]4(C)[C@H]5CC=C6[C@@H]7CC(C)(C)CC[C@]7(C(=O)O[C@@H]7O[C@H](CO[C@@H]8O[C@H](CO)[C@@H](O[C@@H]9O[C@@H](C)[C@H](O)[C@@H](O)[C@H]9O)[C@H](O)[C@H]8O)[C@@H](O)[C@H](O)[C@H]7O)CC[C@@]6(C)[C@]5(C)CC[C@H]4C3(C)C)OC[C@H](O)[C@@H]2O)[C@H](O)[C@H](O)[C@H]1O [HEDERASAPONIN B] gave an IC50 [1] of over 50 µM and an IC50 [2] of over 50 µM.

Work on C[C@@H]1O[C@@H](O[C@H]2[C@H](O)[C@@H](O)[C@H](OC[C@H]3O[C@@H](OC(=O)[C@]45CCC(C)(C)C[C@H]4C4=CC[C@@H]6[C@@]7(C)CC[C@H](O)C(C)(C)[C@@H]7CC[C@@]6(C)[C@]4(C)CC5)[C@H](O)[C@@H](O)[C@@H]3O)O[C@@H]2CO)[C@H](O)[C@H](O)[C@H]1O [CIRENSENOSIDE O] yielded an IC50 [1] of over 50 µM and an IC50 [2] of over 50 µM.

With COc1ccc(/C=C/C(=O)O[C@H]2[C@H](O[C@H]3[C@H](O)[C@@H](O)[C@H](O[C@@H]4CO[C@@H](O[C@@H]5[C@@H](O)[C@H](C)O[C@@H](O[C@H]6[C@H](O[C@H]7CC[C@@]8(C)[C@@H](CC[C@]9(C)[C@@H]8CC=C8[C@@H]%10CC(C)(C)CC[C@]%10(C(=O)O[C@@H]%10O[C@H](CO[C@@H]%11O[C@H](CO)[C@@H](O[C@@H]%12O[C@@H](C)[C@H](O)[C@@H](O)[C@H]%12O)[C@H](O)[C@H]%11O)[C@@H](O)[C@H](O)[C@H]%10O)CC[C@]89C)[C@]7(C)CO)OC[C@@H](O)[C@@H]6O)[C@@H]5O)[C@H](O)[C@@H]4O)O[C@@H]3CO)O[C@H](CO)[C@@H](O)[C@@H]2O[C@@H]2O[C@H](CO[C@@H]3O[C@@H](C)[C@H](O)[C@@H](O)[C@H]3O[C@@H]3O[C@H](CO)[C@@H](O)[C@H](O)[C@H]3O)[C@@H](O)[C@H](O)[C@H]2O)cc1O [CLEMATOCHINENOSIDE A] the IC50 [1] was 7.8 µM and the IC50 [2] was 6.7 µM.

Molecule C[C@@H]1O[C@@H](O[C@H]2[C@H](O)[C@@H](O)[C@H](OC[C@H]3O[C@@H](OC(=O)[C@]45CCC(C)(C)C[C@H]4C4=CC[C@@H]6[C@@]7(C)CC[C@H](O[C@@H]8OC[C@H](O)[C@H](O)[C@H]8O[C@@H]8O[C@@H](C)[C@H](O)[C@@H](O[C@@H]9OC[C@@H](O[C@@H]%10O[C@H](CO)[C@@H](O[C@@H]%11O[C@H](CO)[C@@H](O)[C@H](O)[C@H]%11O)[C@H](O)[C@H]%10O)[C@@H](O)[C@H]9O)[C@H]8O)C(C)(C)[C@@H]7CC[C@@]6(C)[C@]4(C)CC5)[C@H](O)[C@@H](O)[C@@H]3O)O[C@@H]2CO)[C@H](O)[C@H](O)[C@H]1O [CLEMATOMANDSHURICA SAPONIN C] has an IC50 [1] of over 50 µM and an IC50 [2] of over 50 µM.

Molecule COc1ccc(/C=C/C(=O)O[C@H]2[C@H](O[C@H]3[C@H](O)[C@@H](O)[C@H](O[C@@H]4CO[C@@H](O[C@@H]5[C@@H](O)[C@H](C)O[C@@H](O[C@H]6[C@H](O[C@H]7CC[C@@]8(C)[C@@H](CC[C@]9(C)[C@@H]8CC=C8[C@@H]%10CC(C)(C)CC[C@]%10(C(=O)O[C@@H]%10O[C@H](CO[C@@H]%11O[C@H](CO)[C@@H](O[C@@H]%12O[C@@H](C)[C@H](O)[C@@H](O)[C@H]%12O)[C@H](O)[C@H]%11O)[C@@H](O)[C@H](O)[C@H]%10O)CC[C@]89C)[C@]7(C)CO)OC[C@H](O)[C@@H]6O)[C@@H]5O)[C@H](O)[C@@H]4O)O[C@@H]3CO)O[C@H](CO)[C@@H](O)[C@@H]2O[C@@H]2O[C@H](CO[C@@H]3O[C@@H](C)[C@H](O)[C@@H](O)[C@H]3O)[C@@H](O)[C@H](O)[C@H]2O)cc1O [CLEMATERNOSIDE D] has an IC50 [1] of 8.8 µM and an IC50 [2] of 9 µM.

COc1ccc(/C=C/C(=O)O[C@H]2[C@H](O[C@H]3[C@H](O)[C@@H](O)[C@H](O[C@@H]4CO[C@@H](O[C@@H]5[C@@H](O)[C@H](C)O[C@@H](O[C@H]6[C@H](O[C@H]7CC[C@]8(C)[C@H]9CC=C%10[C@@H]%11CC(C)(C)CC[C@]%11(C(=O)O[C@@H]%11O[C@H](CO[C@@H]%12O[C@H](CO)[C@@H](O[C@@H]%13O[C@@H](C)[C@H](O)[C@@H](O)[C@H]%13O)[C@H](O)[C@H]%12O)[C@@H](O)[C@H](O)[C@H]%11O)CC[C@@]%10(C)[C@]9(C)CC[C@H]8C7(C)C)OC[C@H](O)[C@@H]6O)[C@@H]5O)[C@H](O)[C@@H]4O)O[C@@H]3CO)O[C@H](CO)[C@@H](O)[C@@H]2O)cc1O [CLEMATERNOSIDE C] gave an IC50 [1] of 7.6 µM and an IC50 [2] of 8.8 µM.

Reference: ChEMBL document CHEMBL1177732, “Triterpene saponins from Clematis chinensis and their potential anti-inflammatory activity” (J Nat Prod, 2010)
